Measured values from PMC11345841, “Exploring 2-Sulfonylpyrimidine Warheads as Acrylamide Surrogates for Targeted Covalent Inhibition: A BTK Story” (Journal of Medicinal Chemistry, 2024).
Like-named read-outs stand apart in the source and are kept apart here.

Tests used:
[1] = molecular target: BTK, full length (2–659) (Homo sapiens, UniProt Q06187); experiment: Kinact/Ki determination, PhosphoSens progress curve analysis; assay type: biochemical
Procedure: Nonlinear regression was performed using the Solver algorithm in Excel. […] Two-step Kinact/Ki fits were extracted from the progress curve analysis of all compounds against BTK, enabling independent Kinact and Ki determinations.

[2] = molecular target: T1, ABL1(E255K)-phosphorylated (Homo sapiens, UniProt P00519, E255K); experiment: KINOMEscan ScanTK; assay type: binding; conditions: for difference in %Control from reference Ib at 1 µM: read-out: % difference (compound - Ib %Control)
T1 construct: purchased Eurofins DiscoverX KINOMEscan (scanTK)

[3] = molecular target: T2, ABL1(H396P)-nonphosphorylated (Homo sapiens, UniProt P00519, H396P); experiment: KINOMEscan ScanTK; assay type: binding
T2 construct: purchased Eurofins DiscoverX KINOMEscan (scanTK)

[4] = molecular target: T3, ABL1(H396P)-phosphorylated (Homo sapiens, UniProt P00519, H396P); experiment: KINOMEscan ScanTK; assay type: binding
T3 construct: purchased Eurofins DiscoverX KINOMEscan (scanTK)

[5] = molecular target: T4, EGFR(G719S) (Homo sapiens, UniProt P00533, G719S); experiment: KINOMEscan ScanTK; assay type: binding
T4 construct: purchased Eurofins DiscoverX KINOMEscan (scanTK)

[6] = molecular target: T5, EPHA2 (Homo sapiens, UniProt P29317); experiment: KINOMEscan ScanTK; assay type: binding
T5 construct: purchased Eurofins DiscoverX KINOMEscan (scanTK)
T5 sequence (P29317 24-976): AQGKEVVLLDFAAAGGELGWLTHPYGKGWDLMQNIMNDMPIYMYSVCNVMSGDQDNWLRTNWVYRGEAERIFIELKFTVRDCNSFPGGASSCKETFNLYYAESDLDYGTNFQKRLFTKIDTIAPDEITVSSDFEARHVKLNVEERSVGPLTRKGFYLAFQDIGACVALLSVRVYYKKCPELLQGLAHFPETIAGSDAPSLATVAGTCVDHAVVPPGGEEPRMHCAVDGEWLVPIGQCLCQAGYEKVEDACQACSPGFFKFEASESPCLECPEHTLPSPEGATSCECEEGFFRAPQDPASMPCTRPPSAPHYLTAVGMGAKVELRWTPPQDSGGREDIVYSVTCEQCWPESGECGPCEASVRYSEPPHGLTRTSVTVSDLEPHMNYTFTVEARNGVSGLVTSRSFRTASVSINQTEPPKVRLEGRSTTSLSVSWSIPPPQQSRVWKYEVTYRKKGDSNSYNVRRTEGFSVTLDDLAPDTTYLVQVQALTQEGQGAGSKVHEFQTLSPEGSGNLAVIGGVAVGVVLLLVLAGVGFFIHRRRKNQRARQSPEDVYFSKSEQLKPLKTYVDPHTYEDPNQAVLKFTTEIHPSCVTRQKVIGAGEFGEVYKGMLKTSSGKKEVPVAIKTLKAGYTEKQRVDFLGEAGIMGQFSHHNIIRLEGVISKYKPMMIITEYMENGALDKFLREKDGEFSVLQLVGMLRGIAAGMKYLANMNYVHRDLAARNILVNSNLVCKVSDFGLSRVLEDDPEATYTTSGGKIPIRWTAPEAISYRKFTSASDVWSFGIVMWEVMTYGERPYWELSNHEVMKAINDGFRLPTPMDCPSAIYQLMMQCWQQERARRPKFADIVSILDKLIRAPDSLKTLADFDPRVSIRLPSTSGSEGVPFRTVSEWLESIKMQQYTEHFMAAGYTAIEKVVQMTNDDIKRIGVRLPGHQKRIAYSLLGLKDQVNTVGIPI

[7] = molecular target: T6, EPHA4 (Homo sapiens, UniProt P54764); experiment: KINOMEscan ScanTK; assay type: binding
T6 construct: purchased Eurofins DiscoverX KINOMEscan (scanTK)

[8] = molecular target: T7, FLT4 (Homo sapiens, UniProt P35916); experiment: KINOMEscan ScanTK; assay type: binding
T7 construct: purchased Eurofins DiscoverX KINOMEscan (scanTK)

[9] = molecular target: T8, JAK3(JH1domain-catalytic) (Homo sapiens, UniProt P52333); experiment: KINOMEscan ScanTK; assay type: binding; conditions: for difference in %Control from compound Ib at 1 µM / remaining binding at 1 µM: JAK3(JH1domain-catalytic); for inhibition at 1 µM: ScanTK
T8 construct: JAK3(JH1domain-catalytic); purchased Eurofins DiscoverX KINOMEscan (scanTK)
T8 sequence (P52333 822-1124 limits assumed): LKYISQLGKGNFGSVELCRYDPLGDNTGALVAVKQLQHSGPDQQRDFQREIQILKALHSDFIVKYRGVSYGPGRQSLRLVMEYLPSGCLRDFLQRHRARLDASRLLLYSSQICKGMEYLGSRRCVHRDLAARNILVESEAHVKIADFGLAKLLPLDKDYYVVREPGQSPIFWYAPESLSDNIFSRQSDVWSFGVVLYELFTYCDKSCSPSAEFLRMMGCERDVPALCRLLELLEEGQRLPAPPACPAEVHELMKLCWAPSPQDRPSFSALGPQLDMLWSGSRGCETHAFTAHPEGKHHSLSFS

[10] = molecular target: T9, KIT (Homo sapiens, UniProt P10721); experiment: KINOMEscan ScanTK; assay type: binding
T9 construct: purchased Eurofins DiscoverX KINOMEscan (scanTK)
T9 sequence (P10721 26-976): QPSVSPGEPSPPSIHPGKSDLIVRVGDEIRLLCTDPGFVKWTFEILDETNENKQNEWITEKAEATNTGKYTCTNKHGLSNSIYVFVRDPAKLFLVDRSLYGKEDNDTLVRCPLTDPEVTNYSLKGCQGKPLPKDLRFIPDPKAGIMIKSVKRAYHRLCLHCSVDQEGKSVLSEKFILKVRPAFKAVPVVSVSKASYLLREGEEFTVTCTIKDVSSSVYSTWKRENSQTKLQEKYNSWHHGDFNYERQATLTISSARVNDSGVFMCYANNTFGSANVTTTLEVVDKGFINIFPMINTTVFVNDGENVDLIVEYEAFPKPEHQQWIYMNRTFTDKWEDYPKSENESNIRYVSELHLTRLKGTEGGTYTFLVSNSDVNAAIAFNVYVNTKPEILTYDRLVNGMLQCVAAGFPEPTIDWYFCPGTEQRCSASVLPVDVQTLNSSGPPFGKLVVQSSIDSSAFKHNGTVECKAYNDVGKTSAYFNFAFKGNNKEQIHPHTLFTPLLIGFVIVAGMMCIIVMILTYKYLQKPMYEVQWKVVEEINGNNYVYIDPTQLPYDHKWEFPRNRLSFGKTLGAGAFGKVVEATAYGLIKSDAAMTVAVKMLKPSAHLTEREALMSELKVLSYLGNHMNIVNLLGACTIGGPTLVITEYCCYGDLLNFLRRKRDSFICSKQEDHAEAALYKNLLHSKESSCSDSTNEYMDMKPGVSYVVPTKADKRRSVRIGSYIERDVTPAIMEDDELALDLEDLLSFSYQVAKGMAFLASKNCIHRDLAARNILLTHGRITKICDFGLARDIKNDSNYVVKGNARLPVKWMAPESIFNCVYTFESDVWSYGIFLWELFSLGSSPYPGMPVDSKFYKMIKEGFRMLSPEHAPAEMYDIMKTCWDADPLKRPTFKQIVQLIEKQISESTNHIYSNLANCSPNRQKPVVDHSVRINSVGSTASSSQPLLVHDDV

[11] = molecular target: T10, MET (Homo sapiens, UniProt P08581); experiment: KINOMEscan ScanTK; assay type: binding
T10 construct: purchased Eurofins DiscoverX KINOMEscan (scanTK)
T10 sequence (P08581 25-1390): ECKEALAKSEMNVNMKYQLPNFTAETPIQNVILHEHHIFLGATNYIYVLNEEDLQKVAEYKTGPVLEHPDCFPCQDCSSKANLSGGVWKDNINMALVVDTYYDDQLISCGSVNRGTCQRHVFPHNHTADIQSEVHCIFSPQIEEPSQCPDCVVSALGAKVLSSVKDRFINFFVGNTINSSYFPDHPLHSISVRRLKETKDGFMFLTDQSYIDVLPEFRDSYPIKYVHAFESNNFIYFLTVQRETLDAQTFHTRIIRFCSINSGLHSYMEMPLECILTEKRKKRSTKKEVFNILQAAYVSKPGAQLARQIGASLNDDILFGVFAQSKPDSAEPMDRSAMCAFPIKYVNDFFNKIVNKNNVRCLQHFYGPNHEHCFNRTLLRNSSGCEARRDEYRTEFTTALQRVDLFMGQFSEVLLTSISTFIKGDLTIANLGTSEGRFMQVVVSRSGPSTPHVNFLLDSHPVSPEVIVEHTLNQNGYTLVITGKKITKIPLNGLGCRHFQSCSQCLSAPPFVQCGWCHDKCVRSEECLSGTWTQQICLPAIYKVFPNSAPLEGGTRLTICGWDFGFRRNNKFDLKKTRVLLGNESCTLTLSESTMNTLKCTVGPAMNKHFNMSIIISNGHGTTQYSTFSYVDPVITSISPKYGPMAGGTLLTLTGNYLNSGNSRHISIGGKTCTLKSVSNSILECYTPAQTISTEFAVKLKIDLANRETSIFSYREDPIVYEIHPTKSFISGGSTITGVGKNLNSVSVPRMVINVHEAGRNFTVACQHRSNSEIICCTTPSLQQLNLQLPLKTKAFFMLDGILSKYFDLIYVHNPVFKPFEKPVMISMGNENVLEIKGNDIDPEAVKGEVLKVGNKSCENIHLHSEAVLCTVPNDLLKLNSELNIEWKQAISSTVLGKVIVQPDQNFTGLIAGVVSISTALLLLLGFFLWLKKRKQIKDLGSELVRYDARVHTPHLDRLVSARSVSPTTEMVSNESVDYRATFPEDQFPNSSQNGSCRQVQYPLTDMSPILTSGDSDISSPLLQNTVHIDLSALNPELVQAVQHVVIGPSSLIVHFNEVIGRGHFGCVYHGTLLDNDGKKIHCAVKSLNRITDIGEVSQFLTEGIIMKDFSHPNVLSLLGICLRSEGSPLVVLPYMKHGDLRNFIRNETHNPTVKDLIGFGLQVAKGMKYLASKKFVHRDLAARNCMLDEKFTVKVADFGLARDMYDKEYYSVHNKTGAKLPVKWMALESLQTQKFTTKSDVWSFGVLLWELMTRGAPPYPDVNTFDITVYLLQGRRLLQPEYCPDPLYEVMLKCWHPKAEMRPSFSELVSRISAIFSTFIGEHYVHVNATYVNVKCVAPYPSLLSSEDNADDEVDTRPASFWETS

[12] = molecular target: T11, MUSK (Homo sapiens, UniProt O15146); experiment: KINOMEscan ScanTK; assay type: binding
T11 construct: purchased Eurofins DiscoverX KINOMEscan (scanTK)
T11 sequence (O15146 24-869): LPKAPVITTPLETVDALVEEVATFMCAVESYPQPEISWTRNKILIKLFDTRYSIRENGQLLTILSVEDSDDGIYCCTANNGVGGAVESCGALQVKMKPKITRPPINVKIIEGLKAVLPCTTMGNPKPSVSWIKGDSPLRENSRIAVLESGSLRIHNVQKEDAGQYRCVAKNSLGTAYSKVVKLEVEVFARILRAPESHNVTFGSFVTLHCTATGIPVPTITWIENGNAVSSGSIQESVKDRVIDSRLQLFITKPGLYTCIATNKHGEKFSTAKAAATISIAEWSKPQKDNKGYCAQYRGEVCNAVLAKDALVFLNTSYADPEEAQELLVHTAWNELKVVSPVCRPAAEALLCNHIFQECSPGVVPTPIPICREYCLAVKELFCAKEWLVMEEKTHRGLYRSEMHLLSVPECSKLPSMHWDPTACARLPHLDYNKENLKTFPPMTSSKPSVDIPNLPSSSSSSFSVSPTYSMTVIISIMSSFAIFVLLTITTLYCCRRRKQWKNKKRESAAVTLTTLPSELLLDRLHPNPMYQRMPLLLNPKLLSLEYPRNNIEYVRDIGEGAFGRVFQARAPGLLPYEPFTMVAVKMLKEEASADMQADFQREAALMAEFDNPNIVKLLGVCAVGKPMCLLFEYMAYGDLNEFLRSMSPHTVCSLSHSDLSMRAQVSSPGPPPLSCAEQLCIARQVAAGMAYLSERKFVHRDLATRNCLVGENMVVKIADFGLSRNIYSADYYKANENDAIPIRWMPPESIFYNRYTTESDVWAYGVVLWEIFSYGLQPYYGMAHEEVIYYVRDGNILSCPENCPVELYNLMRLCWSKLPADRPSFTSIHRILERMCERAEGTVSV

[13] = molecular target: T12, TRKB (Homo sapiens, UniProt Q16620); experiment: KINOMEscan ScanTK; assay type: binding; conditions: TRKB
T12 construct: purchased Eurofins DiscoverX KINOMEscan (scanTK)
T12 sequence (Q16620 32-822): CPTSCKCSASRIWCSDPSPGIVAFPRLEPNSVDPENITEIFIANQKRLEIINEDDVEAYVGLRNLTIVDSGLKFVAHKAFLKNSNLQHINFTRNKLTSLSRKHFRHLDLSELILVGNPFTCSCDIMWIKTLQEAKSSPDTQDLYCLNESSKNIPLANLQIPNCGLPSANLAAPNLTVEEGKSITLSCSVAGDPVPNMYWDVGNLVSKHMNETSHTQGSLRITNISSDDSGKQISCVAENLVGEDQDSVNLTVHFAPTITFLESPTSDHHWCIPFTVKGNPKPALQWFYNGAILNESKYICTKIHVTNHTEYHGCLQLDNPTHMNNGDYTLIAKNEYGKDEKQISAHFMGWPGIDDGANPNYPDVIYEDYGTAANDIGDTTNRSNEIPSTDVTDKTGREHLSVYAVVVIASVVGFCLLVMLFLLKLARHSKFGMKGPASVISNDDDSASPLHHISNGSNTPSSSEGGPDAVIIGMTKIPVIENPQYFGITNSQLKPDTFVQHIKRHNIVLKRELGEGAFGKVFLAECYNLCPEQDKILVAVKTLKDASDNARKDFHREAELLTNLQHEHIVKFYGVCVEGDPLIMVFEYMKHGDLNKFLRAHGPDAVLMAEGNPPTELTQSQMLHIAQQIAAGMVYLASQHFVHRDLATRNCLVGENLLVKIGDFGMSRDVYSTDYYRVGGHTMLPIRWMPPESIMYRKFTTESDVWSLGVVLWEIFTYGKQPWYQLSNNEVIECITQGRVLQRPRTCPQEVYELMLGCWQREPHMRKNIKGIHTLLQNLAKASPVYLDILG

Chain of BTK, full length (2–659) (Q06187 2-659): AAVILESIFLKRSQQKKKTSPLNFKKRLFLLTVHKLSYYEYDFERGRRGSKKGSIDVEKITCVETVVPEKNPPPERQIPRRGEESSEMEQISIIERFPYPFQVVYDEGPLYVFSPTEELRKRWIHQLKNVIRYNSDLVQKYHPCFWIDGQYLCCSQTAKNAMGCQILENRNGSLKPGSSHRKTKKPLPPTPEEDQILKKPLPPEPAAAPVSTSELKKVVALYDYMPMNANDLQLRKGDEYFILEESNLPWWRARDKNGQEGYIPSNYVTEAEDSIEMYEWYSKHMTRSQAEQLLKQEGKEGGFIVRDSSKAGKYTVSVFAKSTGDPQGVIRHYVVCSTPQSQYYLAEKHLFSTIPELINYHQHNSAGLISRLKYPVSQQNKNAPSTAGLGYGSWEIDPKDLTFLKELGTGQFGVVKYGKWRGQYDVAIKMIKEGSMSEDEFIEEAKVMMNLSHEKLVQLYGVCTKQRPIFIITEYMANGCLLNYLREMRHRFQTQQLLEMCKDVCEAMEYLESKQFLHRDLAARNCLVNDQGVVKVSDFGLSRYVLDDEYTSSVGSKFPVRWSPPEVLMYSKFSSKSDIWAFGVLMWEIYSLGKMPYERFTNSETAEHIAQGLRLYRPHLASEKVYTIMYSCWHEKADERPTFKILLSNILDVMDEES

Row | SMILES | Ki ([1]; BTK) | kinact ([1]; BTK) | difference in %Control from reference Ib at 1 µM ([2]; @1000nM) | remaining binding at 1 µM ([2]; @1000nM, read-out: %Control) | remaining binding at 1 µM ([2]; read-out: %Control @1000nM) | difference in %Control versus compound Ib at 1 µM ([3]; @1000nM) | remaining binding at 1 µM ([3]; @1000nM, read-out: %Control) | remaining binding at 1 µM ([3]; read-out: %Control @1000nM) | %Control difference versus compound Ib at 1 µM ([4]; @1000nM) | remaining binding at 1 µM ([4]; @1000nM, read-out: %Control) | remaining binding at 1 µM ([4]; read-out: %Control @1000nM) | difference in %Control from compound Ib at 1 µM ([5]; @1000nM) | remaining binding at 1 µM ([5]; @1000nM, read-out: %Control) | remaining binding at 1 µM ([5]; read-out: %Control @1000nM) | difference in %Control versus compound Ib at 1 µM ([6]; @1000nM) | remaining binding at 1 µM ([6]; @1000nM, read-out: %Control) | remaining binding at 1 µM ([6]; read-out: %Control @1000nM) | %Control difference from compound Ib at 1 µM ([7]; @1000nM) | remaining binding at 1 µM ([7]; @1000nM, read-out: %Control) | remaining binding at 1 µM ([7]; read-out: %Control @1000nM) | other results
1 | COC(=O)c1cnc(S(C)(=O)=O)nc1N1CCCC(n2nc(-c3ccc(Oc4ccccc4)cc3)c3c(N)ncnc32)C1 (centres unmarked) [Compound 8b, Methyl 4-(3-(4-Amino-3-(4-phenoxyphenyl)-1H-pyrazolo[3,4-d]pyrimidin-1-yl)piperidin-1-yl)-2-(methylsulfonyl)pyrimidine-5-carboxylate] | 24.2 ± 0.95 nM | 0.00792 ± 0.00019 s⁻¹ | 17% | 81% | 81% | 55% | 69% | 69% | 12% | 92% | 92% | 84.4% | 85% | 85% | -1% | 99% | 99% | 7% | 98% | 98% | kinact/KI ([1]; BTK, read-out: Kinact/Ki): 328000 M⁻¹ s⁻¹; difference in %Control from compound Ib at 1 µM ([8]; @1000nM): 62%; remaining binding at 1 µM ([8]; @1000nM, read-out: %Control): 89%; remaining binding at 1 µM ([8]; read-out: %Control @1000nM): 89%; difference in %Control from compound Ib at 1 µM ([9]; @1000nM): 94.5%; remaining binding at 1 µM ([9]; @1000nM, read-out: %Control): 100%; remaining binding at 1 µM ([9]; read-out: %Control @1000nM): 100%; inhibition at 1 µM [9]: < 1%; difference in %Control versus compound Ib at 1 µM ([10]; @1000nM): 30%; remaining binding at 1 µM ([10]; @1000nM, read-out: %Control): 71%; remaining binding at 1 µM ([10]; read-out: %Control @1000nM): 71%; remaining binding at 1 µM ([11]; @1000nM, read-out: %Control): 100%; remaining binding at 1 µM ([11]; read-out: %Control @1000nM): 100%; remaining binding at 1 µM ([12]; @1000nM, read-out: %Control): 92%; remaining binding at 1 µM ([12]; read-out: %Control @1000nM): 92%; difference in %Control versus compound Ib at 1 µM ([13]; @1000nM): 7%; remaining binding at 1 µM ([13]; @1000nM, read-out: %Control): 99%; remaining binding at 1 µM ([13]; read-out: %Control @1000nM): 99%
2 | CNC(=O)c1cnc(S(C)(=O)=O)nc1N1CCCC(n2nc(-c3ccc(Oc4ccccc4)cc3)c3c(N)ncnc32)C1 (centres unmarked) [Compound 8d, 4-(3-(4-Amino-3-(4-phenoxyphenyl)-1H-pyrazolo[3,4-d]pyrimidin-1-yl)piperidin-1-yl)-N-methyl-2-(methylsulfonyl)pyrimidine-5-carboxamide] | 5.07 ± 0.36 nM | 0.0126 ± 0.00067 s⁻¹ | 26% | 90% | 90% | 28% | 42% | 42% | -1% | 79% | 79% | 77.4% | 78% | 78% | -2% | 98% | 98% | 9% | 100% | 100% | kinact/KI [1]: 2.49e+06 M⁻¹ s⁻¹; fold reduction of Kinact/Ki (potency) relative to 1g ([1]; BTK): 3 fold; difference in %Control from compound Ib at 1 µM ([8]; @1000nM): 67%; remaining binding at 1 µM ([8]; @1000nM, read-out: %Control): 94%; remaining binding at 1 µM ([8]; read-out: %Control @1000nM): 94%; difference in %Control from compound Ib at 1 µM ([9]; @1000nM): 67.5%; remaining binding at 1 µM ([9]; @1000nM, read-out: %Control): 73%; remaining binding at 1 µM ([9]; read-out: %Control @1000nM): 73%; inhibition at 1 µM [9]: 27%; difference in %Control versus compound Ib at 1 µM ([10]; @1000nM): 58%; remaining binding at 1 µM ([10]; @1000nM, read-out: %Control): 99%; remaining binding at 1 µM ([10]; read-out: %Control @1000nM): 99%; remaining binding at 1 µM ([11]; @1000nM, read-out: %Control): 100%; remaining binding at 1 µM ([11]; read-out: %Control @1000nM): 100%; remaining binding at 1 µM ([12]; @1000nM, read-out: %Control): 98%; remaining binding at 1 µM ([12]; read-out: %Control @1000nM): 98%; difference in %Control versus compound Ib at 1 µM ([13]; @1000nM): -5%; remaining binding at 1 µM ([13]; @1000nM, read-out: %Control): 87%; remaining binding at 1 µM ([13]; read-out: %Control @1000nM): 87%
